In patent US12458580B2, “Body ink compositions and applicators” (Inkbox Ink Inc., priority 2015, dated 2025):
Values after ≈ are worked out from the molar mass of the structure shown.

Columns and labels:
cells = conditions: cited from earlier work
[1] = solubility limit of genipin in the liquid composition; assay type: physicochemical; conditions: liquid composition: solvent with dissolved genipin; liquid form, solvent water or buffered water
Procedure: (§1) In liquid form, the composition consists of at least a solvent and dissolved genipin in an amount in the range of 10 mM to 200 mM (millimolar), with a preference towards the upper end of this range. […] The ultimate upper limit of 200 mM is the amount where the tattoo applicator becomes too stiff and ultimately impractical to use. The solvent may be pure water, or alternatively buffered water. It has been discovered that maintaining an optimal pH of 7.4 produces the highest degree of effectiveness. Use of a buffer allows such a pH to be accurately maintained at the optimal level of 7.4. However, for efficacy pure water may be used instead of buffered water. The pH of water is 7.0, which reasonably approximates the determined optimal pH, and is within a range of pH values which lead to preferred results. In a preferred embodiment, isopropyl alcohol or ethyl alcohol is added to the formulation to provide enhanced drying capabilities and increased genipin solubility.

human skin = assay: staining (inking) of skin; assay type: in vivo; conditions: liquid form, dissolved genipin
Procedure: as §1, with “solubility. Generally, the use of water as the solvent is preferred over other possible solvents because certain steps in the inking or staining reaction depend on water as a catalyst. […] Water has a viscosity of 1 centipoise (cP), which is a very low level and one that has been determined to be preferred for the composition of the invention. […]” for “solubility.”

[2] = at basic pH; cited from earlier work

solubility [1]: 95 mM (≈ 21.5 mg/mL)
SMILES: COC(=O)C1=CO[C@@H](O)[C@@H]2C(CO)=CC[C@H]12 [genipin]
cytotoxicity (harmfulness to cells) (cells): low cytotoxicity
minimum concentration required for staining to take effect (human skin): 10 mM
stability in solution [2]: unstable and undergoes self-polymerization
